Test results as given in patent US12679878B2, “CRF2 receptor agonists and their use in therapy” (SANOFI, priority 2020, dated 2026).
In brackets after ≈: the same amount, converted by molar mass. Where two headings read alike, the source gives them in different places. Starred links: 1 amine or outer side, 2 acyl side, 3 side chain; linkers in the order of their positions; H or OH if unused. Non-standard residues stand in square brackets, D forms with d. Residues, ends and D or L forms follow the SMILES beside them. Groups on a side chain read outwards from the residue. *: point of attachment. C16 diacid = O=C(O)CCCCCCCCCCCCCCC(=O)*; γGlu = O=C(O)[C@H](CCC(=O)[*:2])N[*:1]

Legend:
CRF1R receptor = target: T1, CRF1R receptor (Homo sapiens, UniProt P34998); assay: cAMP activity at anti-target CRF1R, CHO-K1 cell line clone 2 (Example 19.10); format: cell-based; conditions: for Emax: 100% = Sauvagine at 100 nM; for CRF1/CRF2 ratio: ratio of CRF1 EC50 to CRF2 EC50
T1 construct: host or cells: CHO-K1 clone 2
T1 sequence (P34998 24-415): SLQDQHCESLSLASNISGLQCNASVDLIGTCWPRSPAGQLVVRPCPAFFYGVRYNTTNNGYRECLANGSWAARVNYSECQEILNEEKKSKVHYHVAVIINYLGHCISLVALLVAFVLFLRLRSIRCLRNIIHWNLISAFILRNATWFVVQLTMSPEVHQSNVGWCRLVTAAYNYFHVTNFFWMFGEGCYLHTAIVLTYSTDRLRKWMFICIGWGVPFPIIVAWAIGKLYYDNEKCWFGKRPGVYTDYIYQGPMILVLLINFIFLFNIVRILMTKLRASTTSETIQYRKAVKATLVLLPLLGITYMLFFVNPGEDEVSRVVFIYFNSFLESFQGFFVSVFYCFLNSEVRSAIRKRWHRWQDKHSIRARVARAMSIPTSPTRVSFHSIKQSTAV
How it was run: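 A CRF1R-overexpressing CHO-K1 line (clone 2) was grown in F12/10% FBS/G418 and frozen in aliquots before use. The cAMP assay followed the preceding procedure, with 100% activation defined by Sauvagine at 100 nM.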

[1] = Buffer solubility by LC-UV, pH 7.4 phosphate and pH 4.5 acetate (Example 19.11); format: physicochemical; conditions: target 10 mg/mL
How it was run: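 Powders dissolved at a target 10 mg/mL in 100 mM phosphate pH 7.4 or 100 mM acetate pH 4.5, held 1 h at room temperature, then centrifuged. Diluted supernatant analysed by LC-UV; solubility from peak area against the same compound at 0.5 mg/ml in water:acetonitrile 1:1 with 0.1% formic acid.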

[2] = In vitro plasma stability, rat plasma (Example 19.11); format: in vitro ADME, Sprague Dawley rats; design: remaining at 2 h: dose or concentration left out as unconfirmed; conditions: male, Sprague Dawley, rat, plasma, 37° C.
Procedure: (§1) In vitro plasma metabolic stability was studied in male Sprague Dawley rats and human. Test compound were incubated […] for 2 hours at 37° C. At each time point (0, 0.25, 1 and 2 h), samples were prepared for analysis by means of a single step protein precipitation technique by adding 150 μL of ethanol, 0.1% formic acid to 50 μL aliquots of plasma. Samples were mixed by vortex for homogeneity and then subjected to centrifugation at 14000 rpm for 15 min. The supernatant (100 μL) was collected, diluted with 100 μL of water, 0.1% formic acid and analyzed by LC-HRMS (TripleTOF 6600+, AB Sciex). For each test compound, the area ratios at each time point were compared to the 0 h area ratio and converted to a percentage remaining.

[3] = In vitro plasma stability, human plasma (Example 19.11); format: in vitro ADME; design: dose or concentration left out as unconfirmed; conditions: 37° C.
Procedure: as §1

human CRF2α receptor = target: T2, human CRF2α receptor (Homo sapiens, UniProt Q13324); assay: cAMP agonism at human CRF2α receptor in TeloHEAC cells, FA modified peptides (Example 19.9); format: cell-based; conditions: 0% HSA, relative to urocortin 2
T2 construct: expressed in transfected cells; host or cells: TeloHEAC
T2 sequence (Q13324 1-411): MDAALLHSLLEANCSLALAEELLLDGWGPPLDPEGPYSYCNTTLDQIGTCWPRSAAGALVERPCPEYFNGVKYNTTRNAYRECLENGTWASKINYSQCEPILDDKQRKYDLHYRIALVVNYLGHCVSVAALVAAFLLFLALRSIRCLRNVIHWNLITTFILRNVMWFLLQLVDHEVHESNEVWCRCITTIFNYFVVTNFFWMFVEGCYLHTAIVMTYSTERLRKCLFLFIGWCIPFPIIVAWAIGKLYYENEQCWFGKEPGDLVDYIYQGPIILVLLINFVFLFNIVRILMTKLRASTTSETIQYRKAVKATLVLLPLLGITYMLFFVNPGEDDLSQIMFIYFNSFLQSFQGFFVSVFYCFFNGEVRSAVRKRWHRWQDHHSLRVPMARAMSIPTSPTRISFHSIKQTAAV
How it was run: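 Efficacy and EC50 are referenced to 100 nM urocortin 2 as 100%, with cAMP measured as the 665/620 nm HTRF ratio after 1 h at room temperature. Compounds (0.5 mM DMSO stock, 16 twofold dilutions) acted 30 min at 37 °C on CRF2α-expressing TeloHEAC cells, buffer containing IBMX and 0% or 0.2% HSA.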

[4] = Chemical stability as % loss by LC-UV, 28 days 40° C. vs 5° C. (Example 19.11); format: physicochemical
Procedure: As for example 15 above, also the chemical stability of representative examples of these FA modified peptides has been assessed, using LC-UV instead of light scattering. Solubility and chemical stability were studied in 100 mM phosphate buffer (pH 7.4) and 100 mM acetate buffer (pH 4.5). Test compound powders were dissolved in both buffers at a target concentration of 10 mg/mL and incubated for 1 hour at room temperature. After centrifugation at 2500 rcf for 15 minutes, […] of supernatant was diluted with […] of the incubation buffer and analyzed by LC-UV (Acquity UPLC-DAD, Waters). Solubility was calculated by comparing the peak area of the test compound in the buffer sample with the peak area of the same compound dissolved at 0.5 mg/ml in water:acetonitrile 1:1, 0.1% formic acid.
From the centrifuged supernatant, two additional […] aliquots were collected and diluted with […] of incubation buffer. One aliquot was stored at 5° C., while the other was stored at 40° C. After 28 days, the samples were analyzed by LC-UV. Chemical stability was calculated as % loss using the following equations: • Chemical stability (as % loss)=[(purity after 28 days at 5° C.)−(purity after 28 days at 40° C.)]×100/(purity after 28 days at 5° C.) % purity=[(peak area compound)×100/(total peak area)]

[5] = 0% HSA, CRF1R CHO-K1 clone 2, read-out: EC50 [nM] 0% HSA
[6] = pH 7.4, 100 mM phosphate buffer

Row | EC50 (CRF1R receptor; [5]) | Emax (CRF1R receptor; CRF1R CHO-K1 clone 2) | EC50 (CRF1R receptor; Table 20 side-to-side comparison, read-out: CRF1 EC50) | CRF1/CRF2 ratio (CRF1R receptor) | solubility at 1 h ([1]; pH 4.5, 100 mM acetate buffer) | solubility at 1 h [1, 6] | remaining at 2 h [2] | remaining at 2 h [3] | EC50 (human CRF2α receptor) | % loss (chemical stability) ([4]; pH 4.5) | % loss (chemical stability) ([4]; pH 7.4) | SMILES
1 | > 100 nM | 12% | > 100 nM | >500 | 8500 µg/mL (≈ 1720 µM) | 8500 µg/mL (≈ 1720 µM) | 92% | 100% | 2.47 nM | 0% | 35% | CC[C@H](C)[C@H](N)C(=O)N[C@H](C(=O)N[C@@H](CC(C)C)C(=O)N[C@@H](CO)C(=O)N[C@@H](CC(C)C)C(=O)N[C@@H](CC(=O)O)C(=O)N[C@@H](C(=O)N1CCC[C@H]1C(=O)N[C@H](C(=O)N[C@@H](CCCCN)C(=O)N[C@@H](CC(C)C)C(=O)N[C@@H](CCCCNC(=O)CC[C@H](NC(=O)CCCCCCCCCCCCCCC(=O)O)C(=O)O)C(=O)N[C@@H](CCC(N)=O)C(=O)N[C@H](C(=O)N[C@@H](CC(C)C)C(=O)N[C@@H](CC(C)C)C(=O)N[C@@H](CCCCN)C(=O)N[C@@H](CCC(N)=O)C(=O)N[C@@H](CCC(=O)O)C(=O)N[C@@H](CCCNC(=N)N)C(=O)N[C@@H](CCC(N)=O)C(=O)N[C@@H](CCCCN)C(=O)N[C@@H](CCCCN)C(=O)N[C@@H](CCC(N)=O)C(=O)N[C@@H](CCCNC(=N)N)C(=O)N[C@@H](CCC(=O)O)C(=O)N[C@@H](CCC(N)=O)C(=O)N[C@@H](C)C(=O)N[C@@H](CCC(=O)O)C(=O)N[C@@H](CCCCN)C(=O)N[C@@H](CC(N)=O)C(=O)N[C@@H](CCCCN)C(=O)N[C@@H](CCC(N)=O)C(=O)N[C@H](C(=O)N[C@@H](CC(C)C)C(=O)N[C@@H](CCC(=O)O)C(=O)N[C@@H](CCC(N)=O)C(=O)N[C@H](C(N)=O)C(C)C)[C@@H](C)CC)[C@@H](C)CC)[C@@H](C)CC)C(C)C)C(C)C [compound 190] (H-IVLSLD[dV]PIKLK([γGlu-C16 diacid])QILLKQERQKKQREQAEKNKQILEQV-NH2; N-terminus assumed)
2 | > 100 nM | 12.5% |  |  | 8500 µg/mL (≈ 1740 µM) | 9000 µg/mL (≈ 1840 µM) | 85% | 96% | 2.68 nM | 0% | 54% | CC[C@H](C)[C@H](N)C(=O)N[C@H](C(=O)N[C@@H](CC(C)C)C(=O)N[C@@H](CO)C(=O)N[C@@H](CC(C)C)C(=O)N[C@@H](CC(=O)O)C(=O)N[C@@H](C(=O)N1CCC[C@H]1C(=O)N[C@H](C(=O)N[C@@H](CCCCN)C(=O)N[C@@H](CC(C)C)C(=O)N[C@@H](CCCCNC(=O)CC[C@H](NC(=O)CCCCCCCCCCCCCCC(=O)O)C(=O)O)C(=O)N[C@@H](CCC(N)=O)C(=O)N[C@H](C(=O)N[C@@H](CC(C)C)C(=O)N[C@@H](CC(C)C)C(=O)N[C@@H](CCCCN)C(=O)N[C@@H](CCC(N)=O)C(=O)N[C@@H](CCC(=O)O)C(=O)N[C@@H](CCCNC(=N)N)C(=O)N[C@@H](CCC(N)=O)C(=O)N[C@@H](CCCCN)C(=O)N[C@@H](CCCCN)C(=O)N[C@@H](CCC(N)=O)C(=O)N[C@@H](CCCNC(=N)N)C(=O)N[C@@H](CCC(=O)O)C(=O)N[C@@H](CCCCN)C(=O)N[C@@H](C)C(=O)N[C@@H](CCC(=O)O)C(=O)N[C@@H](CCCCN)C(=O)N[C@@H](CC(N)=O)C(=O)N[C@@H](CCCCN)C(=O)N[C@@H](CCC(N)=O)C(=O)N[C@H](C(=O)N[C@@H](CC(C)C)C(=O)N[C@@H](C)C(=O)N[C@@H](CCC(N)=O)C(=O)N[C@H](C(N)=O)C(C)C)[C@@H](C)CC)[C@@H](C)CC)[C@@H](C)CC)C(C)C)C(C)C [compound 191] (H-IVLSLD[dV]PIKLK([γGlu-C16 diacid])QILLKQERQKKQREKAEKNKQILAQV-NH2)
3 |  |  |  | 68 | 8400 µg/mL (≈ 1720 µM) | 7900 µg/mL (≈ 1610 µM) | 109% | 95% | 0.83 nM | 0% | 49% | CC[C@H](C)[C@H](N)C(=O)N[C@H](C(=O)N[C@@H](CC(C)C)C(=O)N[C@@H](CO)C(=O)N[C@@H](CC(C)C)C(=O)N[C@@H](CC(=O)O)C(=O)N[C@@H](C(=O)N1CCC[C@H]1C(=O)N[C@H](C(=O)N[C@@H](CCCCN)C(=O)N[C@@H](CC(C)C)C(=O)N[C@@H](CCCCNC(=O)CC[C@H](NC(=O)CCCCCCCCCCCCCCC(=O)O)C(=O)O)C(=O)N[C@@H](CCC(N)=O)C(=O)N[C@H](C(=O)N[C@@H](CC(C)C)C(=O)N[C@@H](CC(C)C)C(=O)N[C@@H](CCCCN)C(=O)N[C@@H](CCC(N)=O)C(=O)N[C@@H](CCC(=O)O)C(=O)N[C@@H](CCCNC(=N)N)C(=O)N[C@@H](CCC(N)=O)C(=O)N[C@@H](CCCCN)C(=O)N[C@@H](CCCCN)C(=O)N[C@@H](CCC(N)=O)C(=O)N[C@@H](CCCNC(=N)N)C(=O)N[C@@H](CCC(N)=O)C(=O)N[C@@H](CCC(N)=O)C(=O)N[C@@H](C)C(=O)N[C@@H](CCC(=O)O)C(=O)N[C@@H](CCCCN)C(=O)N[C@@H](CC(N)=O)C(=O)N[C@@H](CCCCN)C(=O)N[C@@H](CCC(N)=O)C(=O)N[C@H](C(=O)N[C@@H](CC(C)C)C(=O)N[C@@H](C)C(=O)N[C@@H](CCC(N)=O)C(=O)N[C@H](C(N)=O)C(C)C)[C@@H](C)CC)[C@@H](C)CC)[C@@H](C)CC)C(C)C)C(C)C [compound 192] (H-IVLSLD[dV]PIKLK([γGlu-C16 diacid])QILLKQERQKKQRQQAEKNKQILAQV-NH2; N-terminus assumed)
